Data reported in the supplement of paper PMC10307832.

Experiments:
Assay in all cases: relative viability (nuclei count vs DMSO), 5 days (fraction); higher = more cells survive
[1] = compound: COc1cc2nc(N3CCCN(C)CC3)nc(NC3CCN(Cc4ccccc4)CC3)c2cc1OC + CS(=O)(=O)N1CCN(Cc2cc3nc(-c4cccc5[nH]ncc45)nc(N4CCOCC4)c3s2)CC1 [Pictilisib] (partner 1 µM)
Outline: (§1)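 Cells from lung cancer lines were seeded into 1536-well plates and, one day later, dosed by pin tool. Treatments were either a single drug or a fixed dose of an anchor drug with five library-drug doses (not always all listed) in √10 steps. After 5 days, nuclei were stained in a one-step fixation (final 0.05% Triton X-100, 1% formaldehyde, 1 ug/ml Hoechst) and counted on 4× images, and relative viability is the treated-to-vehicle nuclei ratio, as the median of duplicate plates.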

[2] = compound: COc1cc2nc(N3CCCN(C)CC3)nc(NC3CCN(Cc4ccccc4)CC3)c2cc1OC + Nc1ncn([C@H]2C[C@H](O)[C@@H](CO)O2)c(=O)n1 [Decitabine] (partner 2 µM)
Outline: as §1

AZD6482 + Trametinib = compound: Cc1cc([C@@H](C)Nc2ccccc2C(=O)O)c2nc(N3CCOCC3)cc(=O)n2c1 [AZD6482] + CC(=O)Nc1cccc(-n2c(=O)n(C3CC3)c(=O)c3c(Nc4ccc(I)cc4F)n(C)c(=O)c(C)c32)c1 [Trametinib] (partner 0.02 µM)
Outline: as §1

AZD6482 + Crizotinib = compound: Cc1cc([C@@H](C)Nc2ccccc2C(=O)O)c2nc(N3CCOCC3)cc(=O)n2c1 [AZD6482] + C[C@@H](Oc1cc(-c2cnn(C3CCNCC3)c2)cnc1N)c1c(Cl)ccc(F)c1Cl [Crizotinib] (partner 1 µM)
Outline: as §1

UMC-11
relative viability ([1]; first compound 0.2 µM): 0.84
relative viability ([1]; first compound 0.6325 µM): 0.805
relative viability ([1]; first compound 2 µM): 0.84
relative viability ([1]; first compound 6.325 µM): 0.681
relative viability ([2]; first compound 0.2 µM): 0.598
relative viability ([2]; first compound 0.6325 µM): 0.577
relative viability ([2]; first compound 2 µM): 0.597
relative viability ([2]; first compound 6.325 µM): 0.451
relative viability (AZD6482 + Trametinib; first compound 0.08 µM): 0.681
relative viability (AZD6482 + Trametinib; first compound 0.253 µM): 0.659
relative viability (AZD6482 + Trametinib; first compound 0.8 µM): 0.705
relative viability (AZD6482 + Trametinib; first compound 2.53 µM): 0.571
relative viability (AZD6482 + Trametinib; first compound 8 µM): 0.9
relative viability (AZD6482 + Crizotinib; first compound 0.08 µM): 0.505
relative viability (AZD6482 + Crizotinib; first compound 0.253 µM): 0.578
relative viability (AZD6482 + Crizotinib; first compound 0.8 µM): 0.628
relative viability (AZD6482 + Crizotinib; first compound 2.53 µM): 0.516
relative viability (AZD6482 + Crizotinib; first compound 8 µM): 0.511
